Laboratory results reported in article PMC11365140 (Cell & Bioscience, 2024).
“Also recorded” adds a separate entry of the source. Bridge positions count the residues as written; N and C are the ends. Ends that are not written are not given here.

Key:
MIN6 cells = assay: Insulin secretion from MIN6 cells; assay type: cell-based, mouse; details: 100 nM, 1 h, 37 °C, 16.8 mM glucose, 2 × 10^4 cells/well; HTRF; 3 technical replicates (Fig. 1F)
Protocol: (§1) Cell culture and hormone secretion
(§2) The INS-1E cells were cultured in RPMI 1640 supplemented with 10% FBS, the αTC1-9 cells were cultured in low glucose DMEM supplemented with 10% FBS and the MIN6 cells were cultured in high glucose DMEM supplemented with 10% FBS. Cells were grown in 96-well plates at a density of 5 × 10^4 cells (INS-1E and αTC1-9) or 2 × 10^4 cells (MIN6) per well. After preincubation for 30 min at 37 °C in KRBB, the cells were incubated with either 0.1% DMSO or compounds for 1 h at 37 °C in KRBB containing either 16.8 mM or 2.8 mM glucose. […] For co-culturing of INS-1E and αTC1-9 cells, RPMI 1640 supplemented with 10% FBS was used, both cell densities were 2.5 × 10^4 cells per well in 96-well plates.

C57BL/6J mice [1] = assay: Oral glucose tolerance test (OGTT), blood glucose; assay type: in vivo, mouse; details: AVP 1 mg/kg i.p., 15 min before 1.5 g/kg oral glucose; 8 mice/group (Fig. 5A, 5B)
Protocol: (§3) Oral glucose tolerance test and insulin detection
(§4) For oral glucose tolerance test (OGTT), mice were fasted overnight and then given either 0.1% DMSO in normal saline (vehicle) or 1 mg/kg AVP and 10 mg/kg Exendin (9–39) (n = 8 per treatment group) via intraperitoneal injection. A glucose bolus was delivered (1.5 g/kg orally) 15 min later. Blood was collected from a tail nick at designated time points, and plasma glucose levels were determined with a glucose meter. To detect insulin level, blood was collected from the retro-orbital plexus of mice 15 min after glucose administration (n = 4 per treatment group) and detected with an ELISA kit for mouse insulin (Crystal Chem, #90080).

INS-1E cells = assay: Insulin secretion from INS-1E cells; assay type: cell-based, rat; details: 100 nM, 1 h, 37 °C, 16.8 mM glucose, 5 × 10^4 cells/well; HTRF; 3 technical replicates (Fig. 1E)
Protocol: as §1, §2

[2] = tested on: co-culture of INS-1E and αTC1-9 cells; assay: Insulin secretion from co-cultured INS-1E and αTC1-9 cells; assay type: cell-based, rat (INS-1E) and mouse (αTC1-9); details: 1 h
Protocol: as §1, §2
Specific sequences of shRNAs (Table 1) targeting GCGR or GLP-1R mRNA were constructed into pLKO.1 puro lentiviral vector (Addgene, #8453). Lentiviral vectors and packaging vectors were transfected into HEK293T cells by FuGENE HD Transfection Reagent (Promega, #E2312) to produce virus particles. INS-1E cells were seeded onto 6-well plates at a density of 5 × 10^5 cells per well and incubated with viruses and 5 μg/mL polybrene for 48 h. Transfected INS-1E cells were collected for real-time qPCR and co-culture experiments.

isolated mouse islets [3] = assay: Glucagon secretion from isolated mouse islets; assay type: cell-based, mouse (C57BL/6J)
Protocol: Hormone secretion from isolated islets
Islets were isolated from anesthetized male C57BL/6J mice (8 wk old). 1 mg/mL Collagenase P (Roche, #11213873001) solution was injected into the pancreas via the bile duct, and the pancreas was digested at 37 °C for 15 min. The mixture was centrifuged at 800 rpm for 3 min to collect the precipitate, which was then washed three times with HBSS (5.4 mM KCl, 0.3 mM Na2HPO4, 0.4 mM KH2PO4, 4.2 mM NaHCO3, 1.3 mM CaCl2, 0.5 mM MgCl2, 0.6 mM MgSO4, 137 mM NaCl, 5.6 mM D-glucose, pH 7.4). Then, the precipitate was re-suspended in HBSS and filtered through a 70 μm filter to obtain islets. The detached islets were cultured overnight in RPMI 1640 supplemented with 10% fetal bovine serum (FBS). The islets were transferred to 48-well plates and starved with KRBB (118.5 mM NaCl, 2.54 mM CaCl2, 1.19 mM KH2PO4, 4.74 mM KCl, 25 mM NaHCO3, 1.19 mM MgSO4, 10 mM HEPES, pH 7.4) containing 0.5% BSA for 60 min. Subsequently, the islets were incubated with 0.1% dimethyl sulfoxide (DMSO) or compounds for a duration of 2 h at 37 °C in 1 mL KRBB containing 16.8 mM or 2.8 mM glucose. Supernatants were collected, and the insulin concentrations were measured using HTRF Insulin kit (Cisbio, #62INSPEC) and an Envision Plate Reader (PerkinElmer).

isolated mouse islets [4] = assay: Insulin secretion from isolated mouse islets; assay type: cell-based, mouse (C57BL/6J); details: for insulin secretion from isolated islets: 2 h
αTC1-9 cells = assay: Glucagon secretion from αTC1-9 cells; assay type: cell-based, mouse; details: 100 nM, 1 h, 16.8 mM glucose, 5 × 10^4 cells/well; HTRF; 3 technical replicates (Fig. 3F)
Protocol: as §1, §2

islet β cells = details: cytokine-induced apoptosis; cited from earlier work
Source text: (§5) AVP regulates the hypothalamic-pituitary-adrenal (HPA) axis, stimulating the release of corticotropin-releasing hormone (CRH) through V1bR activation, thereby promoting CRH-induced insulin secretion.

[5] = tested on: mouse and rat pancreas, and isolated mouse islets; details: mouse and rat pancreas, and isolated mouse islets; cited from earlier work
Source text: as §5

C57BL/6J mice [6] = assay: Plasma insulin in OGTT; assay type: in vivo, mouse; details: AVP 1 mg/kg i.p.; blood 15 min after glucose administration; ELISA; 4 mice/group (Fig. 5C)
Protocol: as §3, §4

[7] = tested on: co-culture of INS-1E and αTC1-9 cells; assay: Glucagon secretion from co-cultured INS-1E and αTC1-9 cells; assay type: cell-based, rat (INS-1E) and mouse (αTC1-9); details: 100 nM, 1 h, 16.8 mM glucose, both 2.5 × 10^4 cells/well (Fig. 3G)
Protocol: as §1, §2

[8] = tested on: pancreas of mouse and rat, and the α cell line InR1G9; details: cited from earlier work
Source text: However, this regulatory mechanism is impaired in individuals with type 1 diabetes. Compared to wild-type mice, V1b receptor k ...

In the case of “Arginine vasopressin (CYFQNCPRG-NH2; disulfide 1-6; ends not checked; UniProt P01185 20-28, looked up) [AVP, neuropeptide composed of nine amino acids]”, the “insulin secretion from MIN6 cells” value (MIN6 cells) is reported as “failed to induce insulin release”, the “blood glucose levels during OGTT” value (C57BL/6J mice [1]) is reported as “significantly lowered blood glucose levels during the OGTT” and the “insulin secretion from INS-1E cells” value (INS-1E cells) is reported as “failed to induce insulin release; also recorded: could not directly induce insulin secretion from INS-1E cells”. The “insulin secretion from co-culture” value ([2]; 100 nM, 16.8 mM glucose, both 2.5 × 10^4 cells/well (Fig. 3H)) was “induce secretion of glucagon and insulin in high-glucose condition”, the “AVP-induced insulin secretion from co-culture after Gcgr knockdown” value ([2]; INS-1E infected with shRNA-Gcgr, AVP (1 nM), 16.8 mM glucose (Fig. 4K)) was “no significant effect” and the “AVP-induced insulin secretion from co-culture after Glp1r knockdown” value ([2]; INS-1E infected with shRNA-Glp1r, AVP (1 nM), 16.8 mM glucose (Fig. 4L)) was “significantly attenuated AVP-induced insulin secretion”. For the same substance, the “glucagon secretion from isolated islets, glucose dependence” value (isolated mouse islets [3]; AVP (100 nM), low (2.8 mM) and high (16.8 mM) glucose (Fig. 3C)) was “induced glucagon secretion from the isolated islets in low- and high-glucose conditions”, the “glucagon secretion from isolated islets” value (isolated mouse islets [3]; various concentrations of AVP, 2 h, 16.8 mM glucose, 10 islets/well, 3 technical replicates (Fig. 3A)) was “induced dose-dependent secretion of glucagon” and the “insulin secretion from isolated islets” value (isolated mouse islets [4]; 100 nM, AVP compared with GLP-1, 3 technical replicates (Fig. 1D)) was “stimulated similar level of glucose-dependent insulin secretion from freshly isolated islets as GLP-1”. For the same substance, the “insulin secretion from isolated islets, glucose dependence” value (isolated mouse islets [4]; 100 nM, low (2.8 mM) and high (16.8 mM) glucose (Fig. 3D, 3E)) was “only induced insulin secretion from the islets in high-glucose medium”, the “insulin secretion from isolated islets” value (isolated mouse islets [4]; various concentrations of AVP, 37 °C, 10 islets/well, 16.8 mM glucose KRBB, HTRF, mean ± SEM, 3 technical replicates (Fig. 1A)) was “induced insulin secretion in a dose-dependent manner in high glucose condition” and the “glucagon secretion from αTC1-9 cells” value (αTC1-9 cells) was “could induce glucagon release from αTC1-9 cells”. The “protection of islet β cells” value (islet β cells) was “confer protection on islet β cells against cytokine-induced apoptosis”, the insulin secretion [5] was “enhance insulin secretion” and the “plasma insulin in OGTT” value (C57BL/6J mice [6]) was “significantly stimulated the release of insulin”. The “glucagon secretion from co-culture” value [7] was “induce secretion of glucagon and insulin in high-glucose condition” and the glucagon secretion [8] was “stimulate glucagon secretion”.
